Entries after “also recorded” stand apart in the source; their conditions may differ.
Key:
[1] = tested on: LN229 cells; experiment: LN229 glioma sphere formation and growth assay; format: cell-based, human; conditions: 100 μM, in words; for Effect on LN229 sphere formation: day 1; for Effect on LN229 sphere growth: day 7
Experimental: FIGS. 5(A-E) illustrate a histogram and images showing the results of the LN229 sphere formation and growth assays. Selected inhibitors, activators, and control compounds identified in LN229 and/or U87 scratch wound closure assays were retested at 100 μM in a secondary assay for glioma cell (LN229) sphere formation and growth. A. Histogram showing the effects of the indicated compounds on sphere formation. On day 1, sphere footprint areas were determined and normalized to the average footprint area of the unblinded vehicle-treated controls. On day 1, a larger footprint area indicates inhibition of aggregation. B. Histogram showing the effects of the indicated compounds on sphere growth. On day 7, the changes in sphere footprint areas were calculated and normalized to the average size change of the unblinded vehicle-treated controls. On day 7, a smaller value indicates reduced growth. […] Data is presented as percentages±s.e.m. of 2-4 replicates. Representative images of samples treated with DMSO (C) and two priority inhibitors (D and E) are shown. Relative day 1 footprint areas and day 7 growth measurements are indicated for each example.
FIGS. 15(A-D) illustrate a histogram and images of titration of selected compounds on LN229 sphere formation and growth. LN229 cells were plated onto non-adherent surfaces and treated with the indicated compounds at 100, 50, and 25 μM. A. On day 1, sphere footprint areas were determined and normalized to the average footprint area of the unblinded vehicle-treated controls. On day 1, a larger foot-print area indicates inhibition of aggregation. B. On day 7, the changes in sphere footprint areas were calculated and normalized to the average size change of the unblinded vehicle-treated controls. On day 7, a smaller value indicates reduced growth. […] Data is presented as percentages±s.e.m. The initial test at 100 μM and the follow-up at that dose with titration is shown. Each bar is the average of 2 replicates. Representative day 1 (C) and day 7 (D) images of samples treated with two priority inhibitors are shown. Relative day 1 sphere footprint areas and day 7 growth for each example are indicated.
(§1) Cells were seeded at a density of 7500 cells per well into the internal wells of 96-well plates coated with 0.75% (wt/vol) PVA as previously described. Compounds were added (2×replicates per treatment) at the indicated final concentrations, and control wells were treated with matching concentrations of DMSO. The external wells of the plates were filled with PBS to buffer against edge effects, and the cells were incubated at 37 °C and 5% CO2 for 7 days. A Leica CTR6500 microscope fitted with an automated stage was used to capture brightfield images on day 1 and day 7, and sphere footprint areas were measured using Image J (v1.52a http://imagej.nih.gov/ij) as previously described. To quantify the effects of the compounds on day 1, the footprint areas of the treated wells were normalized to the average area of the matched DMSO control wells. To quantify the effects of the compounds on sphere growth, the change in the sphere footprint areas was calculated ([…]) and then normalized to the average size change of the matched DMSO samples. All values are presented as average percentages±s.e.m.
We tested the effects of twenty-four compounds (11 flagged as inhibitory, 4 as stimulatory, and nine as inert in the initial scratch-wound screen, FIG. 2) on the ability of LN229 cells to mediate cell-cell adhesion and grow in 3D culture on non-adherent surfaces. To quantify sphere formation (FIG. 5A), the footprint areas of aggregates were measured on day 1 and normalized to that of the DMSO control. At this time point, a larger footprint size (>120%) indicates inhibition, i.e., the failure of cells to form a compact aggregate. To quantify sphere growth (FIG. 5B), we calculated the percent changes in sphere footprint areas between day 1 and day 7 and normalized them to that of the DMSO controls.

[2] = tested on: LN229 cells; experiment: LN229 scratch wound healing assay; format: cell-based, human; conditions: for activity at 100 µM: Homo sapiens, LN-229, normalized to DMSO controls, read-out: LN229 scratch wound closure relative to DMSO controls
Excerpt: FIGS. 3(A-D) illustrate a histogram and images of the LN229 scratch wound assays. A. Histogram showing the effects of all soluble wedge-targeted compounds on LN229 scratch wound closure. Cell movement into the scratches was quantified from scratch wound widths at the start and end of the assay and normalized to the average movement of cells in the unblinded DMSO control samples. Data is presented as average percentages±standard error of the means (s.e.m.), and compound bar codes are shown on the x-axis. The majority of compounds were screened with an n=2. Some priority compounds were screened with 3-6 replicates. Representative endpoint images of samples treated with DMSO (B) and two priority inhibitors (C and D) are shown. The relative migration distances for each example are indicated.
(§2) Cells were seeded at a density of 2.7×10^4 cells per well into the internal wells of Incuyte1 Imagelock 96-well plates (Essen BioScience Inc., Ann Arbor, MI) and cultured overnight to form monolayers. Monolayers were wounded with an IncuCyte1 96-well Woundmaker Tool per the manufacturer's instructions. The outer wells were filled with PBS to buffer edge effects, and then the wounded monolayers were cultured in 100 μl of fresh media with compounds or DMSO (2×replicates at 100 μM or 1%, respectively) at 37 °C and 5% CO2. Images were captured every 4 hrs. using an Incucyte live cell imaging system equipped with the Scratch Wound Module. Scratch wound widths were calculated, per the manufacturer's instructions, at TO and at endpoint (typically T12 for LN229 and U87 cells and T8 for Gli36), which was taken as the last timepoint before wound closure. The cell migration distance was calculated from scratch widths [(T0Width−TendpointWidth)/2] and normalized to the average distance migrated by the DMSO controls. Values are presented as average percentages±standard errors of the means (s.e.m.). The majority of compounds were screened with an n of two, but the n for priority hits ranges from 2-6.
Scratch assays measure the ability of cells to migrate into a wound and close it creating a monolayer.

[3] = tested on: LN229 cells; experiment: Helix Blue staining of LN229 spheres (cell survival); format: cell-based, human; conditions: 100 μM, 24 h, qualitative
Experimental: (§3) FIG. 17 illustrates images showing the effects of prioritized inhibitors on cell survival. LN229 cells were plated onto non-adherent surfaces and cultured in the presence of the indicated compounds (100 μM). On day 1, spheres were stained with Helix Blue to detect dying cells. Parental Sf9 cells (which lack PTPμ) plated onto tissue culture plastic were also grown in the presence of the indicated compounds and, on day 1, stained with Helix Blue. Three compounds appeared to cause a qualitative increase in staining in LN229 spheres. No compound was toxic to Sf9 cells.
(§4) LN229 cells, plated onto non-adherent surfaces as described above, and parental Sf9 cells (without PTPμ), seeded into 96-well flat bottom tissue culture plates, were treated for 24 h with the indicated compounds (100 μM). The cells and spheres were then treated with 5.5 μM Helix Blue (Biolegend, San Diego, CA) and imaged at 10× on a Leica CTR6500 fluorescence microscope.
(§5) The seven penetrant inhibitors were tested to see if they affected the survival of LN229 spheres and parental Sf9 cells (which lack PTPμ) (FIG. 17).

[4] = biological target: PTPμ (Homo sapiens, UniProt P28827); experiment: PTPμ-dependent Sf9 aggregation assay; format: cell-based; conditions: 100 μM; 20 min pretreatment; in words
PTPμ, sequence (P28827 21-1452): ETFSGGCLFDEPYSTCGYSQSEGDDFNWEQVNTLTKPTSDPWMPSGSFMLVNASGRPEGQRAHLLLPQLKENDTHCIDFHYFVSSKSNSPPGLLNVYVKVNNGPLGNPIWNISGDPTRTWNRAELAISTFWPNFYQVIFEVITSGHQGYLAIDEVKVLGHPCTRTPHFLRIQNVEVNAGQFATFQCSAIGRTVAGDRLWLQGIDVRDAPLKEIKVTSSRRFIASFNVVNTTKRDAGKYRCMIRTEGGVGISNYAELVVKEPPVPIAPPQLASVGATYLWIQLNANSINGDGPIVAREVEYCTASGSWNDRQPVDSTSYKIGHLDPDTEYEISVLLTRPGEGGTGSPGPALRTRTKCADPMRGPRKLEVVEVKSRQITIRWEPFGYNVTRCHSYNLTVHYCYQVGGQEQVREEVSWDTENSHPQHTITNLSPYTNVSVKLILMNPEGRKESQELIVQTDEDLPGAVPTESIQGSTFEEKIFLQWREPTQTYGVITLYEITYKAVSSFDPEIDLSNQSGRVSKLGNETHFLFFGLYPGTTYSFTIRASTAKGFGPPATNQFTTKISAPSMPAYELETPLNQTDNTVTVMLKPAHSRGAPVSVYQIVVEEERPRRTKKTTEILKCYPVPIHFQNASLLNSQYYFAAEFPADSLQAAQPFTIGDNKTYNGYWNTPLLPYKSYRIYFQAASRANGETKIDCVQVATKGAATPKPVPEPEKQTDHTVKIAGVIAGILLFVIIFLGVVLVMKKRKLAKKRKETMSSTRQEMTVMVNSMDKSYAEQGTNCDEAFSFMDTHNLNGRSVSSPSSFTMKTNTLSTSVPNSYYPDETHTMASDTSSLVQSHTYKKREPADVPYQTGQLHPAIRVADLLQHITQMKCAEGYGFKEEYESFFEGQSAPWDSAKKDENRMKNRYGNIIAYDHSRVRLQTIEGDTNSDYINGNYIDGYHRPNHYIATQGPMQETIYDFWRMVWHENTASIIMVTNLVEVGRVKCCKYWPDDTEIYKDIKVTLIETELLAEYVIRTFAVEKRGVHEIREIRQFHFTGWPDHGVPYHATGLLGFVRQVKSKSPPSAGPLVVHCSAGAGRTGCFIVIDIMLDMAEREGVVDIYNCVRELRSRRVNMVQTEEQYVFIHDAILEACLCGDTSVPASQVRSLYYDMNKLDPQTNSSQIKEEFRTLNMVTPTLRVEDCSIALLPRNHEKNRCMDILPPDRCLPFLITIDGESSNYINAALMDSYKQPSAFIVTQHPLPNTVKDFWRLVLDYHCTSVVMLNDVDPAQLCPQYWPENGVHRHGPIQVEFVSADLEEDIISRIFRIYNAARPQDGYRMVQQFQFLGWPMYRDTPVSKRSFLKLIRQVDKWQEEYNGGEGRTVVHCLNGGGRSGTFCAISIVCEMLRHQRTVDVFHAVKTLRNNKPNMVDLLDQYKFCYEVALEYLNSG

[5] = tested on: glioma cells; experiment: Glioma cell assays combined (scratch and sphere, several cell lines); format: cell-based, human; conditions: 100 μM; for Effect on glioma cells, overall: multiple assays and cell lines
Experimental: FIG. 2 illustrates a schematic of a functional screening approach. Seventy-four PTPμ wedge-targeted compounds and 2 blinded DMSO samples were received from Atomwise and screened at 100 μM in scratch wound healing assays using two glioma cell lines (LN229 and U87). Selected active and control compounds were taken into secondary assays (Gli36 scratch and LN229 and Gli36 sphere formation and growth assays). Inhibitors selected as being active in primary and secondary screens were tested for effects on the survival of LN229 and Sf9 cells, and selected glioma-cell inhibitors and activators were screened for effects on Sf9-PTPμ aggregation, a highly specific test for PTPμ function.
as §2, §1

[6] = tested on: parental Sf9 cells; experiment: Helix Blue staining of parental Sf9 cells (cell survival); format: cell-based, insect; conditions: 100 μM, 24 h, cells lack PTPμ
Experimental: as §3, §4, §5

[7] = tested on: U87 cells; experiment: U87 scratch wound healing assay; format: cell-based, human; conditions: 100 μM
Excerpt: FIGS. 11(A-D) illustrate a histogram and images of the results of the U87 scratch wound assays. A. Histogram showing the effects of all soluble wedge pocket-targeting compounds on U87 scratch wound closure. Cell movement into the scratches was quantified from scratch wound widths at the start and end of the assay and normalized to the average movement of cells in the unblinded DMSO control samples. Data is presented as average percentages±s.e.m., and compound bar codes are shown on the x-axis. Most compounds were screened with an n of 2-4. Representative images of scratch wounds treated with DMSO (A) or two priority inhibitors (C and D) are shown.
as §2

| SMILES | Effect on LN229 sphere formation [1] | activity at 100 µM [2] [%] | Effect on LN229 cell survival / cell death [3] | Effect on PTPμ-dependent Sf9 aggregation / adhesion [4] | Effect on glioma cells, overall [5] | Effect on parental Sf9 cell survival [6] | Effect on LN229 cell morphology in scratch assay ([2]; 100 μM) | Effect on LN229 sphere growth [1] | Effect on glioma cell migration ([5]; scratch assays) | Effect on U87 cell morphology in scratch assay [7] |
| --- | --- | --- | --- | --- | --- | --- | --- | --- | --- | --- |
| COc1ccccc1CNC(=O)CC(NC(N)=O)c1cccc(Oc2ccccc2)c1 (centres unmarked) [Compound 247679045] | completely blocked sphere formation | < 60 | caused a qualitative increase in LN229-cell death | not shown to affect PTPμ-mediated aggregation; also recorded: did not affect PTPμ-dependent adhesion | highly penetrant inhibitors in glioma cell assays | did not affect parental Sf9 cells |  |  |  |  |
| O=C1NC2(CCCC2)C(=O)N1CC(=O)N(Cc1cccs1)c1ccc2c(c1)OCCO2 [Compound 247679515] | completely blocked sphere formation | < 60 |  | not shown to affect PTPμ-mediated aggregation; also recorded: did not affect PTPμ-dependent adhesion | highly penetrant inhibitors in glioma cell assays |  | rounding |  |  |  |
| CCC1(CC)NC(=O)N(CC(=O)Nc2ccc(Oc3ccccc3)cc2)C1=O [Compound 247682206] | delayed sphere formation | < 60 |  | PTPμ-dependent adhesion; also recorded: affect PTPμ-mediated aggregation | highly penetrant inhibitors; also recorded: able to inhibit glioma cells |  |  | inhibited growth | able to inhibit glioma cell migration | pile-up of U87 cells at the edge of the scratch wound |
| CC(C)COc1ccc(C(=O)N2CCNC(=O)C2CC(=O)OC2CCCCC2)cc1 (centres unmarked) [Compound 247682240] | delayed sphere formation | < 60 |  | not shown to affect PTPμ-mediated aggregation | highly penetrant inhibitors |  |  | inhibited growth |  | pile-up of U87 cells at the edge of the scratch wound |
| Cc1cccc(-c2ccc3c(c2)C(=O)N2CCC(NC(=O)COCC(=O)O)C2C(=O)N3)c1C (centres unmarked) [Compound 247685429] |  |  |  | able to inhibit PTPμ-dependent adhesion; also recorded: able to inhibit PTPμ-mediated aggregation | did not affect glioma cells |  |  |  |  |  |
